Columns and labels:
CYP1 = conditions: cited from earlier work
CYP1A1 = target: T1, CYP1A1 (Homo sapiens, UniProt P04798); assay: in vitro; conditions: pH 7.4, CYP1A1 enzyme activity (%), MNF 2.5 µM, positive control
T1 sequence (P04798 1-512): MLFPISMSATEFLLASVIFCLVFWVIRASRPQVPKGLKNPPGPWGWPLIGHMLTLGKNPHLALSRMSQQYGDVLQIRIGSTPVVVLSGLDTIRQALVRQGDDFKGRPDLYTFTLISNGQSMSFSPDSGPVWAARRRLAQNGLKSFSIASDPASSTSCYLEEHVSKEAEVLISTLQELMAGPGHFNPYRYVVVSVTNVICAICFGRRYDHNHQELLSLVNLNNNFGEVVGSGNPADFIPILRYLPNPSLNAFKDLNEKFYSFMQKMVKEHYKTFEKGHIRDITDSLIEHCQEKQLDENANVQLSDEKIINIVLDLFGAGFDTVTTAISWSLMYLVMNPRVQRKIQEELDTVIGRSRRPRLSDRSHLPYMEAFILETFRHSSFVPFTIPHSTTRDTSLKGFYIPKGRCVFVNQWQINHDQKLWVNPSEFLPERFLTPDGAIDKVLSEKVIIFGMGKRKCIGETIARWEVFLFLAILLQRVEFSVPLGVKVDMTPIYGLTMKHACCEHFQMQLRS
Method: The ethoxyresorufin deethylase (EROD) assay was performed using recombinant human CYP1A1 to determine TnP-mediated inhibition of CYP1A1 enzyme activity according to Wincent et al. [47], with minor changes. In brief, 2.5 nM CYP1A1 was pre-incubated with different concentrations of TnP in Tris-HCl buffer (0.1 M, pH 7.4) with EDTA (1 mM) at 37 °C for 3 min followed by the addition of ethoxyresorufin (0.1 μM) and NADPH (0.4 mM). Formation of resorufin was quantified in triplicates using a Tecan Infinite F200 multiwell plate reader (Tecan Group Ltd., Männedorf, Switzerland) with the excitation/emission wavelengths of 530/590 nm every 4 s for 2 min. The enzyme activity was determined by comparing the rate of resorufin formation compared to the vehicle control DMSO. The TnP concentration causing 50% inhibition of EROD activity (IC50) was estimated by nonlinear dose–response inhibition analysis using GraphPad Prism 9.1 (GraphPad Software, San Diego, CA, USA).
All the concentration were read at least in triplicate. Dimethyl sulfoxide – DMSO was tested
as negative control, and 3’-methoxy-4’-nitroflavone – MNF as positive control.

[1] = system: (DOX)-induced cardiotoxicity; conditions: zebrafish; cited from earlier work
From the text: In addition to its implication in the resolution of inflammation and tissue injury, Asnani et al. recently concluded that inhibition of CYP1 was protective of (DOX)-induced cardiotoxicity.

For `O=Cc1c2c(cc3c1=Nc1ccccc1-3)=Nc1ccccc1-2` [FICZ], the clearance dependence (CYP1) is given as “clearance is dependent on CYP1”.
`COc1cc(-c2cc(=O)c3ccccc3o2)ccc1[N+](=O)[O-]` [MNF] showed an activity (CYP1A1; replicate I) of 1.54%, an activity (CYP1A1; replicate II) of 1.54% and an activity (CYP1A1; replicate III) of 1.71%. The activity (CYP1A1; replicate IV) was 1.67%, the activity (CYP1A1; replicate IX) was 0.51% and the activity (CYP1A1; replicate V) was 1.31%. It also gave an activity (CYP1A1; replicate VI) of 1.7%, an activity (CYP1A1; replicate VII) of 0.51% and an activity (CYP1A1; replicate VIII) of 0.51%.
For `COc1c2ccoc2cc2oc(C)cc(=O)c12` [visnagin], the “effect on DOX-induced cardiotoxicity” value [1] is listed as “cardioprotection”.

From paper PMC11435205, “TnP and AHR-CYP1A1 Signaling Crosstalk in an Injury-Induced Zebrafish Inflammation Model” (Pharmaceuticals, 2024)
